{"source": "ChEMBL document CHEMBL5678818", "about": "“Discovery of potent SOS1 inhibitors that block RAS activation via disruption of the RAS-SOS1 interaction” (Proc Natl Acad Sci U S A, 2019)", "key": {"[1]": {"target": "Mitogen-activated protein kinase kinase kinase kinase 5 (Homo sapiens) (UniProt Q9Y4K4)", "assay": "Inhibition of MAP4K5 (unknown origin) assessed as residual activity at 100 nM by KINOMEscan analysis relative to control"}, "[2]": {"test_system": "Mast/stem cell growth factor receptor Kit (Homo sapiens), P10721 [D816H]", "sequence (P10721 whole entry D816H)": "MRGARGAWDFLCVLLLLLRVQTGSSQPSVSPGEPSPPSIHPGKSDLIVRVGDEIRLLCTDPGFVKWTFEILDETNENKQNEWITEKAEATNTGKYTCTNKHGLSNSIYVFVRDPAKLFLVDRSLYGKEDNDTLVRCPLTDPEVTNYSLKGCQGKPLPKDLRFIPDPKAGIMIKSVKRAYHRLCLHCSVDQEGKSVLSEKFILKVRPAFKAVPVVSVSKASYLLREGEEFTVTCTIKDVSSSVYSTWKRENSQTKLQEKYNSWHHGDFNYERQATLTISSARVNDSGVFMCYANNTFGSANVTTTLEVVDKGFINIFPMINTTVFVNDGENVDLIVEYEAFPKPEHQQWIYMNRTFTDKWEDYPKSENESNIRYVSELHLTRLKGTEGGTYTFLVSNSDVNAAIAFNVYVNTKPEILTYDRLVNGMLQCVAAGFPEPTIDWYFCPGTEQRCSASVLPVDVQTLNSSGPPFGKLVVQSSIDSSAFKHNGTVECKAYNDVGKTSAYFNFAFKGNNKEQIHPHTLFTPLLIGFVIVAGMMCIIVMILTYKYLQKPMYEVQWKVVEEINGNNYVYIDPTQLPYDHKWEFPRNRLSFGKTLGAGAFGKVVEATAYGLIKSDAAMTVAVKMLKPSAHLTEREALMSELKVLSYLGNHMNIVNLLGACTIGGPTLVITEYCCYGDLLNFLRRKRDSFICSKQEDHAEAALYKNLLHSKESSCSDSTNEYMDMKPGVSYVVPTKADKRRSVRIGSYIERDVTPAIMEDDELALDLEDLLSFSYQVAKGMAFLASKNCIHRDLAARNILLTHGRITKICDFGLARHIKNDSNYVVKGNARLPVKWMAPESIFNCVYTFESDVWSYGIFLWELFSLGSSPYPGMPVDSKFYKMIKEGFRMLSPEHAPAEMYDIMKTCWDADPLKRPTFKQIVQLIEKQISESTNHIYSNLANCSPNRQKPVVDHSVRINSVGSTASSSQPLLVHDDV", "assay": "Inhibition of KIT D816H mutant (unknown origin) assessed as residual activity at 100 nM by KINOMEscan analysis relative to control"}, "[3]": {"target": "Fibroblast growth factor receptor 4 (Homo sapiens) (UniProt P22455)", "assay": "Inhibition of FGFR4 (unknown origin) assessed as residual activity at 100 nM by KINOMEscan analysis relative to control"}, "[4]": {"test_system": "Tyrosine-protein kinase ABL1 (Homo sapiens), P00519 [H396P]", "assay": "Inhibition of phosphorylated ABL1 H396P mutant (unknown origin) assessed as residual activity at 100 nM by KINOMEscan analysis relative to control"}, "[5]": {"target": "Calcium/calmodulin-dependent protein kinase type 1D (Homo sapiens) (UniProt Q8IU85)", "sequence (Q8IU85 whole entry, looked up)": "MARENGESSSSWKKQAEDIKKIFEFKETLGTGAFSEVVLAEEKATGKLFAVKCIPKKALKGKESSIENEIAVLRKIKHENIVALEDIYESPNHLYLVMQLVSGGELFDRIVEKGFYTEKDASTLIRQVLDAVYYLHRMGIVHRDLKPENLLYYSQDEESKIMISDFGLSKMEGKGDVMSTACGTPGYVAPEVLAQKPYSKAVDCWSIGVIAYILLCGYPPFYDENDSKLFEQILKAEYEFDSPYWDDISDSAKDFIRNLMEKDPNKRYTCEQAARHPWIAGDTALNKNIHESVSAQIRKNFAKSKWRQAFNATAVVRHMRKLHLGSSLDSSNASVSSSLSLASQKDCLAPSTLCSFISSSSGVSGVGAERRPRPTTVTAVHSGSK", "assay": "Inhibition of CAMK1D (unknown origin) assessed as residual activity at 100 nM by KINOMEscan analysis relative to control"}, "[6]": {"test_system": "Leucine-rich repeat serine/threonine-protein kinase 2 (Homo sapiens), Q5S007 [G2019S]", "sequence (Q5S007 whole entry G2019S)": "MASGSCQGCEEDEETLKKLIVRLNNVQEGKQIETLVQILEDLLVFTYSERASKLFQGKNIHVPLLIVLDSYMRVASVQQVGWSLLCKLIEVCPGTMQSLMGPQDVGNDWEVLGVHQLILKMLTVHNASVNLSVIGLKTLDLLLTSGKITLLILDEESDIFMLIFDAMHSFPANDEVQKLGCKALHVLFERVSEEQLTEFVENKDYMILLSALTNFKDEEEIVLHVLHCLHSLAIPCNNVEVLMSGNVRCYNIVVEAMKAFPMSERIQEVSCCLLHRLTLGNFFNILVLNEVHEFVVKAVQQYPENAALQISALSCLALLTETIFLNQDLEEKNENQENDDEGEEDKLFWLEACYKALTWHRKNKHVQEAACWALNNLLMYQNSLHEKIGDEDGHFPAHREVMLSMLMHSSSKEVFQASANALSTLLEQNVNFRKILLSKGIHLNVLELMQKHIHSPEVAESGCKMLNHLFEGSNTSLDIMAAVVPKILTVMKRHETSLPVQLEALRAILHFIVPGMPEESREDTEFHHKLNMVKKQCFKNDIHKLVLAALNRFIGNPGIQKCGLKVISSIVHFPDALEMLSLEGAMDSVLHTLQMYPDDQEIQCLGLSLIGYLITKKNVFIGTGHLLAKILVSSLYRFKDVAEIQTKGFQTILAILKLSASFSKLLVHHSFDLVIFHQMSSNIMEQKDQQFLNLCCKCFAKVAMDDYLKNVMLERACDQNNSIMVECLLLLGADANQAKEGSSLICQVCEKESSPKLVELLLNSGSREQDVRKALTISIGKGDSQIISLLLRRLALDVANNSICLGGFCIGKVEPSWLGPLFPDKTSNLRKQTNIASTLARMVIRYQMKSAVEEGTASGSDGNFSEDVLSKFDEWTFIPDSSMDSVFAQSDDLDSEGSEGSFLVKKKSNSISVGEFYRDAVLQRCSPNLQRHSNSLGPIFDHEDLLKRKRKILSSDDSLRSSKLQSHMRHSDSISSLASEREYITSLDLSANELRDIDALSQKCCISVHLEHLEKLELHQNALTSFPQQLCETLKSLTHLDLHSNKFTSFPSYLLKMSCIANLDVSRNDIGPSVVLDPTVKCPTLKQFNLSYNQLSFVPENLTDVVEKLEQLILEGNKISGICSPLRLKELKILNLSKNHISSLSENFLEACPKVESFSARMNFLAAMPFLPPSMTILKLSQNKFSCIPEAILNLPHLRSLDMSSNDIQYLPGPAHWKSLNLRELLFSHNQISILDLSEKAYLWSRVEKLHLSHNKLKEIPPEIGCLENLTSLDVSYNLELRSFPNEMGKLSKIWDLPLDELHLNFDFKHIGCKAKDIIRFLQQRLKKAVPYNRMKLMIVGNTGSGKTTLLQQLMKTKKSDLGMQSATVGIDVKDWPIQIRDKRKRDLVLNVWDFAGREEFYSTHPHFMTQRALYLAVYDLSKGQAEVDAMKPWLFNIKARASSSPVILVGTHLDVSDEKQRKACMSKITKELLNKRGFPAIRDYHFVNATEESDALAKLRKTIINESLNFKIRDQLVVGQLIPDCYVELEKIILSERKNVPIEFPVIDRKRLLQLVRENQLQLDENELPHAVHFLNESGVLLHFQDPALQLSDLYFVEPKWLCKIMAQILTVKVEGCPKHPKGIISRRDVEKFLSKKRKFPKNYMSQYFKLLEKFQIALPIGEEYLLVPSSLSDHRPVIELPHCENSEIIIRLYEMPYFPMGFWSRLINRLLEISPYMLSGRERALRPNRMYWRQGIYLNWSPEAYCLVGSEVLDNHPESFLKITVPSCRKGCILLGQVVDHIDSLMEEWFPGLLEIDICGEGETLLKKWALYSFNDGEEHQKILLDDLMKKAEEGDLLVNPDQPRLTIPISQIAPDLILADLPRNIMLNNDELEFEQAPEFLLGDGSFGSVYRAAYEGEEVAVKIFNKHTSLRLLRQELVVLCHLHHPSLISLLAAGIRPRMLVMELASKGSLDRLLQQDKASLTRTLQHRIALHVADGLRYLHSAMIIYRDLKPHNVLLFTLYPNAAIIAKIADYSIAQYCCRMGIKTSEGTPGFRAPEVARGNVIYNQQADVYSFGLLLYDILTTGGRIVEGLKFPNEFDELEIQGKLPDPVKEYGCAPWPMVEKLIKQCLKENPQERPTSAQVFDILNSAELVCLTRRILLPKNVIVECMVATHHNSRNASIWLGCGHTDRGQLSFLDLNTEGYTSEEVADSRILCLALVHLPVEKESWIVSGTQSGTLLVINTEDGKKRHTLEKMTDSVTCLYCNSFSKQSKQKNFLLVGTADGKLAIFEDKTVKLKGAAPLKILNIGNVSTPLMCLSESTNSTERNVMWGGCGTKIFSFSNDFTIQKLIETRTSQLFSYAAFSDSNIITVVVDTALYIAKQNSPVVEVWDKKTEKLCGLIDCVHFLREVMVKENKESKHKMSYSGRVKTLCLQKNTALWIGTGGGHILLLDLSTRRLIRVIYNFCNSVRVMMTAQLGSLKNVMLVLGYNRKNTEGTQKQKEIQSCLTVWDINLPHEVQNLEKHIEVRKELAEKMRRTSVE", "assay": "Inhibition of LRRK2 G2019S mutant (unknown origin) assessed as residual activity at 100 nM by KINOMEscan analysis relative to control"}, "[7]": {"target": "Non-receptor tyrosine-protein kinase TYK2 (Homo sapiens) (UniProt P29597)", "assay": "Inhibition of TYK2 JH1 catalytic domain (unknown origin) assessed as residual activity at 100 nM by KINOMEscan analysis relative to control"}, "[8]": {"target": "T1, 3-phosphoinositide-dependent protein kinase 1 (Homo sapiens) (UniProt O15530)", "T1 sequence (whole entry)": "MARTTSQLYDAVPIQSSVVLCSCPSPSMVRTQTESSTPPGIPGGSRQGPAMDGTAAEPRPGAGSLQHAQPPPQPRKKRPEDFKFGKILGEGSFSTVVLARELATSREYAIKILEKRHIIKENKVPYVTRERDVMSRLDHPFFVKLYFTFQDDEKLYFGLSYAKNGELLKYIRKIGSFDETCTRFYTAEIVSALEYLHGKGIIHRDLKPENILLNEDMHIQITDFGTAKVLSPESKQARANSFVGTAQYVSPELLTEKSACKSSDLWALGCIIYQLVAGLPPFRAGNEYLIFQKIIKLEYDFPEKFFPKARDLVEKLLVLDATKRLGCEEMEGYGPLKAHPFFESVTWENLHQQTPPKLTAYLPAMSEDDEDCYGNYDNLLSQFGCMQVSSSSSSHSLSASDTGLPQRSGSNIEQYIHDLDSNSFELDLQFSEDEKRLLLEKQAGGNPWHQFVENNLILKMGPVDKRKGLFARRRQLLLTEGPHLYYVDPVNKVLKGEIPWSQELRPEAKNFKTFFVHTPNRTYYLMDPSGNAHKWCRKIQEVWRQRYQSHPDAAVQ", "assay": "Inhibition of PDPK1 (unknown origin) assessed as residual activity at 100 nM by KINOMEscan analysis relative to control"}, "[9]": {"target": "Death-associated protein kinase 3 (Homo sapiens) (UniProt O43293)", "sequence (O43293 whole entry, looked up)": "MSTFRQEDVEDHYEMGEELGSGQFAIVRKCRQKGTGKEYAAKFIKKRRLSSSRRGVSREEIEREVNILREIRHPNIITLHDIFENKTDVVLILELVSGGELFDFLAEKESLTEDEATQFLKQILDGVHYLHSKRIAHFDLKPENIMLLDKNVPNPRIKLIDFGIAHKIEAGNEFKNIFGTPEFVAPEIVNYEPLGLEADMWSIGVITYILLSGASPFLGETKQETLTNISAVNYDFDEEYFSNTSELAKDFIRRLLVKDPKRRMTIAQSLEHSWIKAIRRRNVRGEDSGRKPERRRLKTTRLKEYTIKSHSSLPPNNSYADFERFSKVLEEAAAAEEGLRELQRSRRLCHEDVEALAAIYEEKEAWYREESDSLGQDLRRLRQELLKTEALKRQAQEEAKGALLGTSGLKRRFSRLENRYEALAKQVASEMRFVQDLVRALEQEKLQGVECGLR", "assay": "Inhibition of DAPK3 (unknown origin) assessed as residual activity at 100 nM by KINOMEscan analysis relative to control"}, "Homo sapiens": {"species_on_record": "Homo sapiens", "assay": "Inhibition of N-terminal GST-tagged recombinant human SOS1 H905A mutant (564 to 1049 residues) expressed in Escherichia coli assessed as reduction in KRAS G12C mutant activation at 10 uM by HTRF analysis relative to control"}, "[10]": {"test_system": "Mast/stem cell growth factor receptor Kit (Homo sapiens), P10721 [L576P]", "sequence (P10721 whole entry L576P)": "as the sequence (P10721 whole entry D816H) above, with L576P, H816D counted along it", "assay": "Inhibition of KIT L576P mutant (unknown origin) assessed as residual activity at 100 nM by KINOMEscan analysis relative to control"}, "[11]": {"target": "Citron Rho-interacting kinase (Homo sapiens) (UniProt O14578)", "assay": "Inhibition of CIT (unknown origin) assessed as residual activity at 100 nM by KINOMEscan analysis relative to control"}, "[12]": {"target": "T2, Tyrosine-protein kinase receptor TYRO3 (Homo sapiens) (UniProt Q06418)", "T2 sequence (whole entry)": "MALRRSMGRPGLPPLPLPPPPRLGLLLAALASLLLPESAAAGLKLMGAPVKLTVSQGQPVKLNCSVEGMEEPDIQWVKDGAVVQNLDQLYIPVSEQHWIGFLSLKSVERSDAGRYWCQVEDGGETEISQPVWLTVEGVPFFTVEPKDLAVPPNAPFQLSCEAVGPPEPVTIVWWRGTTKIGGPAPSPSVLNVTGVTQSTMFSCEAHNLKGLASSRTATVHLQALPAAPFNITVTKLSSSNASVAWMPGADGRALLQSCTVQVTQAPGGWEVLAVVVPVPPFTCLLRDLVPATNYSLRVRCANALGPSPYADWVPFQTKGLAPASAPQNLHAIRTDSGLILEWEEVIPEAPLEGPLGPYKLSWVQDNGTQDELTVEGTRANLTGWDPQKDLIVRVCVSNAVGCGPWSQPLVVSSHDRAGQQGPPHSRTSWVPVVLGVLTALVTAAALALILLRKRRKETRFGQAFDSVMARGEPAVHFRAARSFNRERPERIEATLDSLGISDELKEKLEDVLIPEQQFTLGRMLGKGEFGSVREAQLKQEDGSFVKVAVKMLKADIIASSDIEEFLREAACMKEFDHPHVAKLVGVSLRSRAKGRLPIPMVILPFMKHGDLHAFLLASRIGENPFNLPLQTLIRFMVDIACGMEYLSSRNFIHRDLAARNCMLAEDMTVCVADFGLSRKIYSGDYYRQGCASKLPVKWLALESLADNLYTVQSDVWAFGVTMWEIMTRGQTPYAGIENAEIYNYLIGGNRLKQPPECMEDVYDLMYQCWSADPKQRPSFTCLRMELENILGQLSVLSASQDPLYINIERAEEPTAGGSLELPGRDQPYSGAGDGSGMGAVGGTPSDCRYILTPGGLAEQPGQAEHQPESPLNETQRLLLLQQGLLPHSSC", "assay": "Inhibition of TYRO3 (unknown origin) assessed as residual activity at 100 nM by KINOMEscan analysis relative to control"}, "[13]": {"target": "Epithelial discoidin domain-containing receptor 1 (Homo sapiens) (UniProt Q08345)", "assay": "Inhibition of DDR1 (unknown origin) assessed as residual activity at 100 nM by KINOMEscan analysis relative to control"}}}
{"smiles": "COc1cc2ncnc(N[C@H](C)c3cccc4ccccc34)c2cc1OC", "values": [{"measurement": "Activity", "setting": "[1]", "value": 87, "unit": "%"}, {"measurement": "Activity", "setting": "[2]", "value": 89, "unit": "%"}, {"measurement": "Activity", "setting": "[3]", "value": 76, "unit": "%"}, {"measurement": "Activity", "setting": "[4]", "value": 92, "unit": "%"}, {"measurement": "Activity", "setting": "[5]", "value": 88, "unit": "%"}, {"measurement": "Activity", "setting": "[6]", "value": 92, "unit": "%"}, {"measurement": "Activity", "setting": "[7]", "value": 94, "unit": "%"}, {"measurement": "Activity", "setting": "[8]", "value": 79, "unit": "%"}, {"measurement": "Activity", "setting": "[9]", "value": 100, "unit": "%"}, {"measurement": "inhibition", "setting": "Homo sapiens", "value": 52, "unit": "%"}, {"measurement": "Activity", "setting": "[10]", "value": 85, "unit": "%"}, {"measurement": "Activity", "setting": "[11]", "value": 83, "unit": "%"}, {"measurement": "Activity", "setting": "[12]", "value": 76, "unit": "%"}, {"measurement": "Activity", "setting": "[13]", "value": 100, "unit": "%"}]}
